We go through five molecules from ChEMBL document CHEMBL1201862, “PubChem BioAssay data set” (2004).

The source made the active and inactive calls.

Experiment [1] concerns the target T1, Apoptotic protease-activating factor 1 (Homo sapiens, UniProt O14727).
T1 sequence (O14727 whole entry): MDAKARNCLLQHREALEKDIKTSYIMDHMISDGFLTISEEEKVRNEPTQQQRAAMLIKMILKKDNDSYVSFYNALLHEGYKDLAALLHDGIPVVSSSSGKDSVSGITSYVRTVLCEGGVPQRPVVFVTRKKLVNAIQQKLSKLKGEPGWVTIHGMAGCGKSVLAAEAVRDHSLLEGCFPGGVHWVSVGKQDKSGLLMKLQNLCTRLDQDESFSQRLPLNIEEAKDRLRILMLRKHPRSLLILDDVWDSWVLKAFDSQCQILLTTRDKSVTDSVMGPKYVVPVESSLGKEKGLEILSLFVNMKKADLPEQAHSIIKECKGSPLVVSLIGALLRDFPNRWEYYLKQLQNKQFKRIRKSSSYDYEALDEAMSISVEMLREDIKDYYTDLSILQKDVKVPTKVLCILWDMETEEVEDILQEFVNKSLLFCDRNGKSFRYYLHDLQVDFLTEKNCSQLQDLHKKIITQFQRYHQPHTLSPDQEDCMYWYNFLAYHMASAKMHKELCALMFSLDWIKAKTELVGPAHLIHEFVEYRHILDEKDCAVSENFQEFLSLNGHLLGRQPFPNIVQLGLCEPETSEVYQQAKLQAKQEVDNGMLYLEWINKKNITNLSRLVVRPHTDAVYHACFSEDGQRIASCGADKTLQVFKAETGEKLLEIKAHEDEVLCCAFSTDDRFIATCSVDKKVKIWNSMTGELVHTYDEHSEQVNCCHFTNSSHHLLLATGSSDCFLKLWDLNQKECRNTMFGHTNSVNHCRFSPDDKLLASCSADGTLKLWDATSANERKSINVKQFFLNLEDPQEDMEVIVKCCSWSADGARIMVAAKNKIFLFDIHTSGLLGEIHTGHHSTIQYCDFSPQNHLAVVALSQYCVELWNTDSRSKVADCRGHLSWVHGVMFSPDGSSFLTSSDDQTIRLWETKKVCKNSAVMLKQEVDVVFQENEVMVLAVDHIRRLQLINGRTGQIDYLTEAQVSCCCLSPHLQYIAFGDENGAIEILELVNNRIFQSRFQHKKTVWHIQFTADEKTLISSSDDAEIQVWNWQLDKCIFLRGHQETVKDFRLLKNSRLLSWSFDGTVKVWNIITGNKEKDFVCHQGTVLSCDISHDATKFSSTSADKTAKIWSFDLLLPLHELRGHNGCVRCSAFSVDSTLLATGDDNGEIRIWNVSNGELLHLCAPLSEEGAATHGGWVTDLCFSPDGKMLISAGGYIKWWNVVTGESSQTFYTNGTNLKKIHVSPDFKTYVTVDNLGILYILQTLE
In kind it is functional.

Experiment [2] can be described thus: Trypanosoma cruzi growth suppression in host cells – NIH3T3 host cells, beta-gal luminescence, confirmation (AID 2044).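 Note: intracellular parasites grown in NIH/3T3 mouse fibroblasts as host cells; luminescent beta-galactosidase reporter signal from transgenic T. cruzi replicating inside host cells; inhibitors lower the luminescence signal.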 It counts as functional, cell-based.
Experiment [3] addresses T2, Zinc finger protein mex-5 (Caenorhabditis elegans, UniProt Q9XUB2).
T2 sequence (Q9XUB2 whole entry): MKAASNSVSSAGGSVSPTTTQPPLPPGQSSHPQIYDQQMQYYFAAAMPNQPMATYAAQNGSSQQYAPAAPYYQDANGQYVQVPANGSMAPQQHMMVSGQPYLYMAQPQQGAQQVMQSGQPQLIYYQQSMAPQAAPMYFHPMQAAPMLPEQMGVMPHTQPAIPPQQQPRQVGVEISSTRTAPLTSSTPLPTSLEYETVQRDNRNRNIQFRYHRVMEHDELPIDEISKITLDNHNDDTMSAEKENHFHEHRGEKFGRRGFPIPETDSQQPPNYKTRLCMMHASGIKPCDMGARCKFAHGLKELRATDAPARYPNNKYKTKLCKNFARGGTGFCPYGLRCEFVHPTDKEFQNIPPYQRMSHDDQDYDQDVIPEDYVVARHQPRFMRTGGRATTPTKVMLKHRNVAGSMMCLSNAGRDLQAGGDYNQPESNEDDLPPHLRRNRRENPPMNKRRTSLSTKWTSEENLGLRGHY
Description: potency of MEX-5 RNA-binding blockers – biochemical, C. elegans, fluorescence polarization, dose response (AID 1960). On the technique in general: In fluorescence polarisation assays a small probe gives low polarisation when free and higher when bound to something large.

For the next experiment, the target named is Keap1/Nrf2 (Homo sapiens, UniProt Q14145). Kind of experiment: disruptors of Keap1 binding to Nrf2 peptide – biochemical, fluorescence polarization, cherry-picked samples, dose response (AID 588683).
The target in the next experiment is Troponin, cardiac muscle (Homo sapiens, UniProt P19429+P45379+P63316). Description: compounds desensitizing RTF to calcium – biochemical, fluorescence, cardiac regulated thin filaments, triplicate IC50, dose response (AID 504742). In kind it is protein-complex assay.
For experiment [4], the target named is Induced myeloid leukemia cell differentiation protein Mcl-1 (Homo sapiens, UniProt Q07820). It counts as functional.
Experiment [5] in a line: Luminescence Cell-Based Dose Retest to Confirm Inhibitors of Cancer Stem Cells. [Related pubchem assays (depositor defined):AID2717, AID2721]. In kind it is functional, Homo sapiens. As to conditions: Homo sapiens.
The target of experiment [6] is Serine/threonine-protein kinase Nek2 (Homo sapiens, UniProt P51955). It counts as functional.
The target in experiment [7] is Tyrosine-protein kinase Srms (Homo sapiens, UniProt Q9H3Y6). In kind it is functional.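 Note: SRMS measured as one member of a kinome-wide kinase profiling panel.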
Experiment [8] addresses Serine/threonine-protein kinase PLK1 (Homo sapiens, UniProt P53350). It counts as functional.
The target of experiment [9] is Cell division cycle 7-related protein kinase (Homo sapiens, UniProt O00311). It counts as functional.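 Note: value obtained from a kinome-wide kinase panel.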
Experiment [10] has as its target Serine/threonine-protein kinase N2 (Homo sapiens, UniProt Q16513). In kind it is functional.
Experiment [11] has as its target Tyrosine-protein kinase Fer (Homo sapiens, UniProt P16591). In kind it is functional.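 Note: FER tested as one member of a kinome panel.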
A further experiment addresses Aurora kinase B (Homo sapiens, UniProt Q96GD4). It counts as functional.
A further experiment has as its target Misshapen-like kinase 1 (Homo sapiens, UniProt Q8N4C8). It counts as functional.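 Note: kinome panel screen with MINK as the panel member.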
Experiment [12] has as its target Ribosomal protein S6 kinase alpha-5 (Homo sapiens, UniProt O75582). In kind it is functional.
The target of experiment [13] is Tyrosine-protein kinase SYK (Homo sapiens, UniProt P43405). In kind it is functional.

Sequence of Cell division cycle 7-related protein kinase (O00311 whole entry): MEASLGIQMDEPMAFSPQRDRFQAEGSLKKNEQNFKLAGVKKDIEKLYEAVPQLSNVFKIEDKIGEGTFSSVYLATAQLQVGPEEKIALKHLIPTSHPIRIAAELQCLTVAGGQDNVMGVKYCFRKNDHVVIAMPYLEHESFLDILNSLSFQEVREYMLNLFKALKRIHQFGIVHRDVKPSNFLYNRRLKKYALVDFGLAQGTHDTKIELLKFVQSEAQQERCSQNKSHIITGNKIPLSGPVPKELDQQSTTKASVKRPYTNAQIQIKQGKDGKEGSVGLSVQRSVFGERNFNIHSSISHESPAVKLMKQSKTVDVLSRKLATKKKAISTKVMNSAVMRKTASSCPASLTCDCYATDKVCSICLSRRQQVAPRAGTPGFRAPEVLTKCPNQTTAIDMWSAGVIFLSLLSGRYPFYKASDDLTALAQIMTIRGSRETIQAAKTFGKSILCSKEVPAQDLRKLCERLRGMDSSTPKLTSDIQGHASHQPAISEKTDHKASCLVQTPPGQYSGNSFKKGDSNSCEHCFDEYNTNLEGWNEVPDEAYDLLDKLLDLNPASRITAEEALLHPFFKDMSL
Sequence of Serine/threonine-protein kinase N2 (Q16513 whole entry): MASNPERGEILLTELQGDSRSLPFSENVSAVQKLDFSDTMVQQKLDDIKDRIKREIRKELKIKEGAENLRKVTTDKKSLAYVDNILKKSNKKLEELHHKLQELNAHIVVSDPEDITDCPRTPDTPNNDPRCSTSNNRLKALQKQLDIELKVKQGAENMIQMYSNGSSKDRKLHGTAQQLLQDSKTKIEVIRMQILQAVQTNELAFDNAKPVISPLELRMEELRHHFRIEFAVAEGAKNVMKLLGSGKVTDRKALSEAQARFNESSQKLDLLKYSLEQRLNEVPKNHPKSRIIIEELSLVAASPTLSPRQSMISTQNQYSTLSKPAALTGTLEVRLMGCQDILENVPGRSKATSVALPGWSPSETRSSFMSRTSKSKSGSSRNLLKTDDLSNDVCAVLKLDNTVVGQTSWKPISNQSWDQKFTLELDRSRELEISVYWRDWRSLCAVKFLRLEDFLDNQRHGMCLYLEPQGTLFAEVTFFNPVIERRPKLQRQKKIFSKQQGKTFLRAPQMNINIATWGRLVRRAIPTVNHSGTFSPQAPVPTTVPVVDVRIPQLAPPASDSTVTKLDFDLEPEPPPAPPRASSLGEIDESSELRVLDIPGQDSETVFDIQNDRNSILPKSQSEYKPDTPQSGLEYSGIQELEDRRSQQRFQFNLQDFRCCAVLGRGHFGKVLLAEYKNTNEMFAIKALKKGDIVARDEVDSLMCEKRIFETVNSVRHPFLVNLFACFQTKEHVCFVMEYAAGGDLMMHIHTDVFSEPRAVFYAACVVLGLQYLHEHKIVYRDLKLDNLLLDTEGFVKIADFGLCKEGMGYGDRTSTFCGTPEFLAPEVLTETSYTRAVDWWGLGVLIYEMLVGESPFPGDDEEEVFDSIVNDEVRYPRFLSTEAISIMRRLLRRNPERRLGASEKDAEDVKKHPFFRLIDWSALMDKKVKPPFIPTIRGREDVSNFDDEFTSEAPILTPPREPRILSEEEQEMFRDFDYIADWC
Sequence of Tyrosine-protein kinase Srms (Q9H3Y6 whole entry): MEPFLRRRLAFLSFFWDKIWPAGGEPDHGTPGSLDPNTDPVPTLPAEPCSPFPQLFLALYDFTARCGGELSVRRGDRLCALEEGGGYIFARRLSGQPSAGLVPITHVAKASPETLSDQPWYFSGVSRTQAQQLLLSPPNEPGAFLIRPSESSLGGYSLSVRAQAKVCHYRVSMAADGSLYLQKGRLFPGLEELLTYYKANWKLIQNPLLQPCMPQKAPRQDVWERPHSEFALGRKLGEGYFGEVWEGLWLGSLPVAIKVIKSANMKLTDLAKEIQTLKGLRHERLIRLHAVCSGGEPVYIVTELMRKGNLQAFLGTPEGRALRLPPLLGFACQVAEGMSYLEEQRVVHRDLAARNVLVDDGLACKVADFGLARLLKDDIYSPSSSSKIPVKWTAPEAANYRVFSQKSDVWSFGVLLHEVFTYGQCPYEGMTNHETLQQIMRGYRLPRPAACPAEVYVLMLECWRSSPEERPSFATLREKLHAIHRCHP
Sequence of Tyrosine-protein kinase Fer (P16591 whole entry): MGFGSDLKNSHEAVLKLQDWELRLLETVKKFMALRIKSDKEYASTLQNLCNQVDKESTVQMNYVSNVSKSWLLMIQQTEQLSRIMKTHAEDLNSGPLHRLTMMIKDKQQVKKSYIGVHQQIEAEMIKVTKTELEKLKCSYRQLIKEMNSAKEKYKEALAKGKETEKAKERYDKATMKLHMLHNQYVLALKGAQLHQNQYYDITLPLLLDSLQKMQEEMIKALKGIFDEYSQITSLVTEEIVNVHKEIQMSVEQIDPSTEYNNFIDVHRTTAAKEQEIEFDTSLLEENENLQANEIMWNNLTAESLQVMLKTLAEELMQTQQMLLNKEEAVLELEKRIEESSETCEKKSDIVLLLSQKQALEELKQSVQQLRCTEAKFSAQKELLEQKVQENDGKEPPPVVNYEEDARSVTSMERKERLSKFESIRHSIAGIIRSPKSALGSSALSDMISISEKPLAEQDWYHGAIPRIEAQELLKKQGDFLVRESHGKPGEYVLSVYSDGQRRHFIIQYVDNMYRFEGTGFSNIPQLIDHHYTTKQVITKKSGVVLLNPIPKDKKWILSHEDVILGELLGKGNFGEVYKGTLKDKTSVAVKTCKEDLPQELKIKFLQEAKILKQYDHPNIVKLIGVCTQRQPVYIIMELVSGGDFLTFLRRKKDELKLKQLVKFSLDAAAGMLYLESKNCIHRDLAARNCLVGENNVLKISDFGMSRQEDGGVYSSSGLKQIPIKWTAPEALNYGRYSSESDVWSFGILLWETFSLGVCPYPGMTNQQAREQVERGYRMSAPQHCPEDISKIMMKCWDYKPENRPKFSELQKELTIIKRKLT
Sequence of Keap1/Nrf2 (Q16236 whole entry): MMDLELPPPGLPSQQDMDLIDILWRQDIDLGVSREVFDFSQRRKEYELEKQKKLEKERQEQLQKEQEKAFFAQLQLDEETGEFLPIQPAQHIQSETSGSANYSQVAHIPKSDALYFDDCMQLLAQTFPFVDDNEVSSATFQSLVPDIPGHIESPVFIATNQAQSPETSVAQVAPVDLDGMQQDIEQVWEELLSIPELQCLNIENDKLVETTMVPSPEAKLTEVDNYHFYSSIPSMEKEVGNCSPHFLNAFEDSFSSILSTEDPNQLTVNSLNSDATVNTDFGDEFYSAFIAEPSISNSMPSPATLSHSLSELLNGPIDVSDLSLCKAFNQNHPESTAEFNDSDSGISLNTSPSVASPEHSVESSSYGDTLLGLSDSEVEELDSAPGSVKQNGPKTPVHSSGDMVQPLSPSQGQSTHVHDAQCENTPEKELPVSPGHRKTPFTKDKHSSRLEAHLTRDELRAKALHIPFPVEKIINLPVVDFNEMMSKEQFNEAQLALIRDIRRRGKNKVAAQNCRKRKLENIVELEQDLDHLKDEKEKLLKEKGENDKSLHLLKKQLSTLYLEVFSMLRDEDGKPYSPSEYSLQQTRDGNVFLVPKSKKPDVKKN
Sequence of Keap1/Nrf2 (Q14145 whole entry): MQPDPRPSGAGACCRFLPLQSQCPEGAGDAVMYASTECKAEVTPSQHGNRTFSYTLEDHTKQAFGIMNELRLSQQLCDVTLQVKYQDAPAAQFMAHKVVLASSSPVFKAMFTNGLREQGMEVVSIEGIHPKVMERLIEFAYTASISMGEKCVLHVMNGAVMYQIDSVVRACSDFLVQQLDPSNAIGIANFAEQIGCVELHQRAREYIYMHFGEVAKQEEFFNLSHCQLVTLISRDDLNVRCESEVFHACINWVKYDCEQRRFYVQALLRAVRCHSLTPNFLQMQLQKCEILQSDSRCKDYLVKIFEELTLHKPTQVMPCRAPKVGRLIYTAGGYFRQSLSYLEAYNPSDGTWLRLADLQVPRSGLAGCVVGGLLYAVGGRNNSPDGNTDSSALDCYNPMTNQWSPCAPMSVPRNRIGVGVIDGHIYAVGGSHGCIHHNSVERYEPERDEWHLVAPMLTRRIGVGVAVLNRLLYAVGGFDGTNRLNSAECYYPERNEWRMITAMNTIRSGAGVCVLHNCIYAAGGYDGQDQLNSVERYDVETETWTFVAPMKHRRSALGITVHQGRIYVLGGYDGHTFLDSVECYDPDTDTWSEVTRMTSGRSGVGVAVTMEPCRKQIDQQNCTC
Sequence of Serine/threonine-protein kinase PLK1 (P53350 whole entry): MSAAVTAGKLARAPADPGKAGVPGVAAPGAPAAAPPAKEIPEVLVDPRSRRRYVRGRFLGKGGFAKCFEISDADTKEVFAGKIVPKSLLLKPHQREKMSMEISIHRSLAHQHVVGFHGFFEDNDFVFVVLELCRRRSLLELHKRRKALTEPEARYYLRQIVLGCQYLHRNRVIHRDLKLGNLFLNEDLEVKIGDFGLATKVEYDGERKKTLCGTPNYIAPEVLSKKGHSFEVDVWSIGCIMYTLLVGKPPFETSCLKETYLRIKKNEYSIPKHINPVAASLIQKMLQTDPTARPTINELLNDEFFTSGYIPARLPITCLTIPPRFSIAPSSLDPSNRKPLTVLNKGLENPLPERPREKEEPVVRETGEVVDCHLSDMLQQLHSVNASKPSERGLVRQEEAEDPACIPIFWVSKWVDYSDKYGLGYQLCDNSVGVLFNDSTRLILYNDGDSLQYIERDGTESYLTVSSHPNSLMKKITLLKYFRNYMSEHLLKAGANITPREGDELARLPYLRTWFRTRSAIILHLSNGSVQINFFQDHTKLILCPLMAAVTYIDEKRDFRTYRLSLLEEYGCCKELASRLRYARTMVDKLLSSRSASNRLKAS
Sequence of Aurora kinase B (Q96GD4 whole entry): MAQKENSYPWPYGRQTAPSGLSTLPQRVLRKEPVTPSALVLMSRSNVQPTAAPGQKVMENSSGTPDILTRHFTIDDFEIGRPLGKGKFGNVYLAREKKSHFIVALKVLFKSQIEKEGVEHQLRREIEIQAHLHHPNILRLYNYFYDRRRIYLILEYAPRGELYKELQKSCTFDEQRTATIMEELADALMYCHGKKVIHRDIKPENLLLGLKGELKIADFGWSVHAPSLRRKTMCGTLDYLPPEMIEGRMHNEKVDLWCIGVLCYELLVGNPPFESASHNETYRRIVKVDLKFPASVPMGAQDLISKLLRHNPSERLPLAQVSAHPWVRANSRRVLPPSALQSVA

For `O=C1C=C(N2CCCCC2)c2ccccc2C1=O`, the IC50 (in general, the point on the concentration scale where inhibition reaches its midpoint) in [1] was 2120 nM (active).
Turning to `O=C(CCc1ccccc1)NNc1cc(N2CCCCC2)nc(N2CCCCC2)n1`, in experiment [1], the IC50 was 3620 nM (active). In experiment [2], the EC50 (as a rule, the concentration that produces a half-maximal response) is 3740 nM (active).
As for `O=C(O)C1Nc2c(O)cc(Cl)c([N+](=O)[O-])c2C2C=CCC12` (centres undefined), in experiment [3], the EC50 is 19100 nM (inconclusive). The AC50 – broadly, the concentration giving half of the maximal activity seen – on Keap1/Nrf2 was > 52000 nM (inactive). In addition, the IC50 is 11000 nM (inactive) on Troponin, cardiac muscle and > 54000 nM (active) in experiment [4].
With `Oc1ccc(N=Nc2c(O)ccc3ccccc23)cc1`, the AC50 in experiment [5] is 2380 nM (active).
As to `Cc1n[nH]c2ccc(-c3cncc(OCC(N)Cc4cccc(Cl)c4)c3)cc12` (centres undefined), the Ki (usually the equilibrium dissociation constant of an inhibitor or competing ligand from its target) in experiment [6] is > 10000 nM (inactive); in experiment [7] it was > 1580 nM (inactive); in experiment [8], > 7940 nM (inactive); in [9] it was 0.794 nM (active); in experiment [10], 15.8 nM (active); in [11] it was > 1580 nM (inactive). Also, the Ki is 200 nM (active) at Aurora kinase B, 25.1 nM (active) at Misshapen-like kinase 1, 5.01 nM (active) in experiment [12] and > 1580 nM (inactive) in [13]. Besides, the pKi (usually the negative decadic logarithm of the Ki, by convention in mol/L) in [9] was found to be 9.1.
